Values of other authors as cited in patent publication US20050143363A1, “Method for subretinal administration of therapeutics including steroids; method for localizing pharmacodynamic action at the choroid of the retina; and related methods for treatment and/or prevention of retinal diseases” (InnoRx, Inc., priority 2002, published 2005).

Conditions: 72 hours after injection into the vitreous; animal studies

## C[C@]12C=CC(=O)C=C1CC[C@H]1[C@@H]3C[C@@H](O)[C@](O)(C(=O)CO)[C@@]3(C)C[C@H](O)[C@@]12F [triamcinolone]
  share of the triamcinolone present in the vitreous that was associated with other tissues including the retina, pigment epithelium, and sclera: less than 1%
